Experimental data from US20160176924A1, “MODIFIED PEPTIDES AS POTENT INHIBITORS OF THE PSD-95/NMDA RECEPTOR INTERACTION” (priority 2008, published 2016).

Assays:
PDZ2 of PSD-95 = target: T1, PDZ2 of PSD-95 (Homo sapiens, UniProt P78352); assay: FP heterologous competition binding assay; details: FP competition; mean ± SEM; NA = no activity/affinity
T1 construct: PDZ2 (residues 155-249); made in house; host or cells: E. coli BL21-DE3 pLysS
From the text: (§1) Determined IC50 values may be converted to Ki values.^5 Suitable fluorophores include either 5-FAM or Cy5, which may be coupled to a tripeptide (KSG or CSG) linker attached to the N-terminus of the undecapeptide, to give 5-FAM-NR2B, Cy5-NR2B, 5-FAM-CRIPT and Cy5-CRIPT. The 5-FAM fluorophore may be attached to the undecapeptides by coupling with HATU. The Cy5 fluorophore may be conjugated to the undecapeptides by coupling Cy5-maleimide to the cysteine side chain of the tripeptide sequence CSG attached to the N-terminus of the peptide, as detailed in the Methodology section.
(§2) To measure the affinities between non-fluorescent peptides and PDZ domains, heterologous competition bindings assay were performed. This was done by adding increasing concentrations of peptide to a fixed concentration of Cy5-NR2B, 5-FAM-NR2B, Cy5-CRIPT or 5-FAM-CRIPT (50 nM) and PDZ (20 μM for PDZ1, 3 μM for PDZ2 and 1-2 and 5 μM for PDZ3) in the same TBS buffer and conditions as described above. FP values were then fitted to the general equation: Y=Bottom+(Top−Bottom)/[1[…](10̂^X-logIC50)], where X is the logarithmic value of peptide concentration. Hereby the IC50 value was obtained, which is used to calculate the theoretical competitive inhibition constant, Ki.^5
(§3) A convenient and reliable way to examine interactions between peptide analogues and PDZ domains is by using a fluorescence polarization (FP) assay. The three PDZ domains, PDZ1-3, of PSD-95 were expressed individually as set out above, while PDZ1-2 was also expressed as a tandem construct. […] IC50 values were then converted to Ki values.^5

PDZ1-2 tandem of PSD-95 = target: T2, PDZ1-2 tandem of PSD-95 (Homo sapiens, UniProt P78352); assay: FP heterologous competition binding assay; details: mean ± SEM
T2 construct: PDZ1-2 (residues 61-249) tandem; made in house; host or cells: E. coli BL21-DE3 pLysS
From the text: as §1, §2, §3

PDZ1 of PSD-95 = target: T3, PDZ1 of PSD-95 (Homo sapiens, UniProt P78352); assay: FP heterologous competition binding assay; details: FP competition; mean ± SEM; NA = no activity/affinity
T3 construct: PSD-95 PDZ1 (residues 61-151); made in house; host or cells: E. coli BL21-DE3 pLysS
From the text: as §1, §2, §3

[1] = Human blood plasma stability assay; format: in vitro ADME
Experimental: In this assay, the half-life (T1/2) of a compound in blood plasma is measured in vitro, whereby its susceptibility to degradation by proteases, peptidases and general plasma contents is quantified.
Compounds of interest were dissolved in human blood plasma (270 μl; 3H Biomedical, Sweden, cat no 1300-1-P50) to a concentration of 0.25 mM (30 μL of 2.5 mM) and incubated at 37° C. Aliquots (30 μl) were removed at various time intervals (0, 5, 10, 20, 40, 80, 160, 320, 960, 1280, 2550, 4560 and 7240 min) and quenched with 60 μL trichloroacetic acid (aq., 5%). The aliquots were vortexed, and incubated for at least 15 min, at 4° C. prior to centrifugation at 18,000 g for 2 min and the supernatant was analyzed by RP-HPLC to quantify the remaining compound (absorbance at 218 nm).

[2] = system: cultured cortical neurons; assay: Neuronal NMDA excitotoxicity assay (LDH release); format: cell-based, rat; details: 500 nM
From the text: When cultured cortical neurons are exposed to high concentrations of NMDA, an excitoxic cascade is initiated, which leads to cellular damage and ultimately neuronal cell death. Consequently, the cell membranes are destroyed, and cytoplasmic enzymes are released into the cell surroundings. The extent of this neuronal cell death can be quantified by measuring the release of cytoplasmic lactate dehydrogenase (LDH) enzyme into the cell medium. The compounds of interest and control compound (3) are investigated with respect to their abilities to attenuate NMDA-mediated toxicity. Compounds that are active in this assay are both membrane permeable, and can prevent ex vivo excitotoxicity, which are important properties for therapeutics towards excitotoxicity mediated diseases.
Cortical neurons were surgically removed from rats (e.g. E21) and then cultured for 7-9 days in vitro in Neurobasal A medium with B-27 supplement (each supplied by Invitrogen), further supplemented with 1 mM glutamine, 50 units/ml penicillin, and 50 μg/ml streptomycin. The following steps were then performed:
1. Samples of the cultured cortical neurons were removed from the Neurobasal-A based culture medium, at various time points prior to exposure to compound, and placed into “transfection medium” ([…]; as defined by Bading et al (1993) Science 260, 181-186) comprising: 10% modified Minimum Essential Medium (supplied by Invitrogen; product no: 21090022; containing Earles salt, but no L-glutamine), 90% Salt-Glucose-Glycine (SGG) medium: (114 mM NaCl, 0.219% NaHCO3, 5.292 mM KCL, 1 mM MgCl2, 2 mM CaCl2, 10 mM HEPES, 1 mM Glycine, 30 mM glucose, 0.5 mM sodium pyruvate, 0.1% Phenol Red), insulin-transferrin-selenite supplement (supplied by Sigma: 7.5 μg insulin/ml, 7.5 μg transferring/ml and 7.5 ng sodium selenite/ml); with a final osmolarity of 325 mosm/l. All subsequent steps were performed in this TM medium. 2. Samples of neurons are exposed to an NMDAR/PSD-95 inhibitor of the invention (compounds 40, 52-90) at a final concentration of between 0.05-50 μM for a period of between 0.5 to 1.5 hours. […] 3. Each sample of neurons was washed at least one time in TM medium to remove the NMDAR/PSD-95 inhibitor, and placed in TM medium. 4. After various periods of time, the samples of neurons were exposed to NMDA at a concentration of between 10-100 μM for a period of 0.5 to 1.5 hours, preferably 1 hour, after which the samples were again placed in TM medium for 24 hours. 5. LDH in the cell medium was quantified using commercial available kits (e.g. Promega Biotech AB, cat no G1780).

PDZ1-2 of PSD-95 = target: T4, PDZ1-2 of PSD-95 (Homo sapiens, UniProt P78352, I195W); assay: Stopped-flow fluorimetry (fluorescence titration assay); format: binding
T4 construct: PDZ1-2 (residues 61-249) tandem; made in house; host or cells: E. coli BL21-DE3 pLysS
Experimental: The HIS-PDZ2 and HIS-PDZ1-2 expression constructs of PSD-95 were genetically manipulated to encode a tryptophan, (in position 51 of SEQ ID NO: 4 and position 145 in SEQ ID NO: 8, respectively) instead of isoleucine. Binding between PDZ2 and PDZ1-2 and peptide ligand 74 was then monitored and quantified, by measuring the fluorescence increase from this tryptophan upon ligand recognition. (excitation λ at 280 nm, emission λ>320 nm). Stopped-flow measurements were performed at 10° C. or 25° C. on an SX-20MV stopped-flow spectrometer (Applied Photophysics, Leatherhead, UK). The peptide, in varying amounts, was rapidly mixed with a constant amount of PDZ and the change in fluorescence was measured over time. The fluorescence versus time plots was fitted to a single or double exponential equation, from which one or two observed rate constants were obtained. Observed rate constants were then plotted against the concentration of the varied species and microscopic rate constants determined by fitting the data to the equation for a bimolecular association (Eq. 1)
kobs=((kon^2(n−[A]0)^2+koff^2+2konkoff(n+[A]0))^0.5 (Eq. 1) […]
The equilibrium dissociation constant Kd of the PDZ-peptide complex was calculated by the experimental determined kon and koff.

CC[C@H](C)[C@H](NC(=O)CCOCCOCCOCCOCCOCCOCCOCCOCCOCCOCCOCCOCCOCCC(=O)N[C@H](C(=O)N[C@@H](CCC(=O)O)C(=O)N[C@@H](CO)C(=O)N[C@@H](CC(=O)O)C(=O)N[C@H](C(=O)O)C(C)C)[C@@H](C)CC)C(=O)N[C@@H](CCC(=O)O)C(=O)N[C@@H](CO)C(=O)N[C@@H](CC(=O)O)C(=O)N[C@H](C(=O)O)C(C)C [(IESDV)2PEG12 (74), (IESDV)2PEG12]
Ki (PDZ2 of PSD-95): 3.1 ± 0.13 µM
Ki (PDZ1-2 tandem of PSD-95): ~0.1 µM
Ki (PDZ1 of PSD-95): 22 ± 1.4 µM
degradation in human blood plasma, in words [1]: no significant degradation could be detected over a time period of 6 days
half-life at […] ([1]; human, plasma, Blood plasma half life (T1/2)): > 133 h
effect on NMDA-mediated excitotoxicity, in words [2]: inhibit neuronal excitotoxicity, as efficiently as the clinical candidate Tat-N2B (3)
Ki (PDZ1-2 of PSD-95): ~0.1 µM
